According to US20210052741A1, “GENE THERAPY METHODS AND COMPOSITIONS USING AUXOTROPHIC REGULATABLE CELLS” (AUXOLYTIC LTD, priority 2018, published 2021):
Where “and” joins values, the source holds several entries; their conditions need not be identical. Equal entries are not always repeated.

Assays:
[1] = tested on: UMPS^KO/KO T cells mixed with wild-type T cells; experiment: 5-FOA selection in mixed T cell population; format: cell-based, human
From the text: To evaluate the possibility to select for UMPS^KO/KO cells with 5-FOA, the sorted cells were mixed with wild-type cells, which were labeled with different tracking dyes, and cultured in the presence or absence of 5-FOA. In part of the samples, 5-FOA was only added on the first day (Day 0) while in another group it was supplemented daily. Table 30 and FIG. 7C show the percent (%) of the UMPS-KO T cells (labelled with eFluor670) over time when culturing with or without 5-FOA.
In fact, FACS analysis of a culture of a mixed population of UMPS knockout and wild-type T cells with 5-FOA. UMPS-KO T cells were labeled with eFluor670, and wild-type cells were labeled with carboxyfluorescein succinimidyl ester (CFSE). […] On Day 0 in the control group not treated with 5-FOA, 47.7% of the cells were UMPS-KO T cells, and 52.1% were wild-type cells. On Day 3 in the group with 5-FOA supplemented daily, 74.0% of the cells were UMPS-KO T cells, while 25.8% were wild-type cells. On Day 3 in the control group not treated with 5-FOA, 43.1% of the cells were UMPS-KO T cells, and 56.4% were wild-type cells.

[2] = tested on: UMPS^KO/KO/GFP^+ K562 cells mixed with UMPS^WT/WT K562 cells; experiment: 5-FOA resistance in mixed K562 culture; format: cell-based, human; conditions: for Percentages of GFP+ cells, Day 1 / Percentages of GFP+ cells, Day 2 / Percentages of GFP+ cells, Day 3 / Percentages of GFP+ cells, Day 4 / Percentages of GFP+ cells, Day 6 / Percentages of GFP+ cells, Day 8: with Uridine
Description: To determine the resistance of UMP S knockout cells to 5-FOA the purified uMPS^KO/KO/GFP^+ K562 cells were mixed at an equal ratio with UMPS^wT/WT/GFP-negative K562 cells. The cells were cultured in the presence of Uridine and different concentrations of 5-FOA (FIG. 6F).

O=C(O)c1[nH]c(=O)[nH]c(=O)c1F [5-FOA, 5-fluoroorotic acid]
Percent of UMPS^KO/KO cells in mixed cell population, Day 0 ([1]; 5-FOA Day 0 only): 43.7% and 43.2% | Percent of UMPS^KO/KO cells in mixed cell population, Day 1 ([1]; 5-FOA Day 0 only): 59.2% and 55.6% and 50.8% | Percent of UMPS^KO/KO cells in mixed cell population, Day 3 ([1]; 5-FOA Day 0 only): 67.2% and 68.6% and 67.8% | Percent of UMPS^KO/KO cells in mixed cell population, Day 0 ([1]; 5-FOA daily): 43.2% | Percent of UMPS^KO/KO cells in mixed cell population, Day 1 ([1]; 5-FOA daily): 58.5% and 55.4% and 54.5% | Percent of UMPS^KO/KO cells in mixed cell population, Day 3 ([1]; 5-FOA daily): 70.7% and 69.2% | percent wild-type cells in mixed population, Day 0 ([1]; 5-FOA only on the first day (Day 0), FACS): 56.0% | percent wild-type cells in mixed population, Day 3 ([1]; 5-FOA supplemented daily, FACS): 25.8% | percent of UMPS-KO T cells, treated vs untreated group ([1]; unpaired t test): significant increase in the percent of UMPS-KO T cells | Number of GFP + cells per μl, Day 1 ([2]; 10 ug/ml 5-FOA): 87013.04 cells per μl | Number of GFP + cells per μl, Day 2 ([2]; 10 ug/ml 5-FOA): 163245.74 cells per μl | Number of GFP + cells per μl, Day 4 ([2]; 10 ug/ml 5-FOA): 569281.05 cells per μl | Number of GFP + cells per μl, Day 6 ([2]; 10 ug/ml 5-FOA): 550780.31 cells per μl | Number of GFP + cells per μl, Day 8 ([2]; 10 ug/ml 5-FOA): 719624.13 cells per μl | Percentages of GFP+ cells, Day 1 ([2]; 10 ug/ml 5-FOA): 45.4% and 48.5% | Percentages of GFP+ cells, Day 2 ([2]; 10 ug/ml 5-FOA): 54.7% and 56.8% | Percentages of GFP+ cells, Day 3 ([2]; 10 ug/ml 5-FOA): 65.6% and 64.0% | Percentages of GFP+ cells, Day 4 ([2]; 10 ug/ml 5-FOA): 64.8% and 69.7% | Percentages of GFP+ cells, Day 6 ([2]; 10 ug/ml 5-FOA): 79.1% and 76.5% | Percentages of GFP+ cells, Day 8 ([2]; 10 ug/ml 5-FOA): 85.0% and 79.8% | Number of GFP + cells per μl, Day 1 ([2]; 100 ug/ml 5-FOA): 115272.35 cells per μl | Number of GFP + cells per μl, Day 2 ([2]; 100 ug/ml 5-FOA): 106377.73 cells per μl | Number of GFP + cells per μl, Day 4 ([2]; 100 ug/ml 5-FOA): 376993.53 cells per μl | Number of GFP + cells per μl, Day 6 ([2]; 100 ug/ml 5-FOA): 501940.62 cells per μl | Number of GFP + cells per μl, Day 8 ([2]; 100 ug/ml 5-FOA): 693093.53 cells per μl | Percentages of GFP+ cells, Day 1 ([2]; 100 ug/ml 5-FOA): 52.6% and 48.9% | Percentages of GFP+ cells, Day 2 ([2]; 100 ug/ml 5-FOA): 67.1% and 64.2% | Percentages of GFP+ cells, Day 3 ([2]; 100 ug/ml 5-FOA): 79.5% and 71.4% | Percentages of GFP+ cells, Day 4 ([2]; 100 ug/ml 5-FOA): 85.2% and 74.4% | Percentages of GFP+ cells, Day 6 ([2]; 100 ug/ml 5-FOA): 92.1% and 86.2% | Percentages of GFP+ cells, Day 8 ([2]; 100 ug/ml 5-FOA): 92.8% and 82.8% | Number of GFP + cells per μl, Day 1 ([2]; 1000 ug/ml 5-FOA): 75925.72 cells per μl | Number of GFP + cells per μl, Day 2 ([2]; 1000 ug/ml 5-FOA): 79080.77 cells per μl | Number of GFP + cells per μl, Day 4 ([2]; 1000 ug/ml 5-FOA): 151010.55 cells per μl | Number of GFP + cells per μl, Day 6 ([2]; 1000 ug/ml 5-FOA): 217794.10 cells per μl | Number of GFP + cells per μl, Day 8 ([2]; 1000 ug/ml 5-FOA): 339282.35 cells per μl | Percentages of GFP+ cells, Day 1 ([2]; 1000 ug/ml 5-FOA): 51.9% and 49.4% | Percentages of GFP+ cells, Day 2 ([2]; 1000 ug/ml 5-FOA): 65.0% and 58.9% | Percentages of GFP+ cells, Day 3 ([2]; 1000 ug/ml 5-FOA): 72.9% and 66.9% | Percentages of GFP+ cells, Day 4 ([2]; 1000 ug/ml 5-FOA): 82.0% and 77.7% | Percentages of GFP+ cells, Day 6 ([2]; 1000 ug/ml 5-FOA): 92.6% and 90.5% | Percentages of GFP+ cells, Day 8 ([2]; 1000 ug/ml 5-FOA): 90.1% and 75.7% | proliferation of UMPS knockout cells in 5-FOA ([2]; 10 and 100 μg/ml 5-FOA): proliferated well | fraction of UMPS^KO/KO cells ([2]; all 5-FOA concentrations used): increased over time | cell growth of UMPS knockout cells in 5-FOA ([2]; highest concentration (1000 ug/ml)): slowed their cell growth down
